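Where inhibition never reached the appropriate level, the endpoint shown equals the highest concentration tested. Otherwise, values were interpolated linearly from a five-concentration, 48-hour dose response in 96-well plates. The concentration for 50% growth inhibition is given as GI50. TGI: total growth inhibition.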
How the values were obtained:
Assay in all cases: growth of human tumour cells (NCI), 48 h
[1] = test system: DU-145 prostate
[2] = test system: MCF7 breast
[3] = test system: CCRF-CEM leukemia
[4] = test system: SN12C renal
[5] = test system: A549 NSCLC
[6] = test system: T-47D breast
[7] = test system: SW-620 colon
[8] = test system: HOP-62 NSCLC
[9] = test system: OVCAR-5 ovarian
[10] = test system: SF-268 CNS
[11] = test system: HCC-2998 colon
[12] = test system: HCT-116 colon
[13] = test system: SK-MEL-28 melanoma
[14] = test system: SK-OV-3 ovarian
[15] = test system: 786-0 renal
[16] = test system: UACC-257 melanoma
[17] = test system: MDA-MB-435
[18] = test system: M14 melanoma
[19] = test system: SNB-75 CNS
[20] = test system: CAKI-1 renal
[21] = test system: EKVX NSCLC
[22] = test system: COLO 205 colon
[23] = test system: OVCAR-3 ovarian
[24] = test system: MALME-3M melanoma
[25] = test system: OVCAR-4 ovarian
[26] = test system: OVCAR-8 ovarian
[27] = test system: UO-31 renal
[28] = test system: BT-549 breast
[29] = test system: HT29 colon
[30] = test system: LOX IMVI melanoma
[31] = test system: NCI-H23 lung
[32] = test system: SK-MEL-2 melanoma
[33] = test system: ACHN renal
[34] = test system: HOP-92 NSCLC
[35] = test system: RPMI-8226 leukemia
[36] = test system: SNB-19 CNS
[37] = test system: HS 578T breast
[38] = test system: UACC-62 melanoma
[39] = test system: NCI-H460 lung
[40] = test system: PC-3 prostate
[41] = test system: TK-10 renal
[42] = test system: NCI-H522 lung
[43] = test system: NCI/ADR-RES ovarian
[44] = test system: HL-60(TB) leukemia
[45] = test system: HCT-15 colon
[46] = test system: K-562 leukemia
[47] = test system: SR leukemia
[48] = test system: RXF 393 renal
[49] = test system: SF-539 CNS
[50] = test system: IGROV1 ovarian
[51] = test system: NCI-H226 lung
[52] = test system: KM12 colon
[53] = test system: MDA-MB-231 breast
[54] = test system: MOLT-4 leukemia
[55] = test system: U251 CNS

`CC1=C2C(=C[C@@](C)(C=O)[C@@H]2O)C(=O)[C@](C)(O)C12CC2` showed a GI50 [1] of 340 nM, a TGI [1] of 10100 nM and a GI50 [2] of 381 nM. For the same molecule, the TGI [2] was 10500 nM, the GI50 [3] was 1740 nM and the TGI [3] was greater than 100000 nM. The GI50 [4] was 2850 nM, the TGI [4] was 51500 nM and the GI50 [5] was 476 nM. The TGI [5] was 11900 nM, the GI50 [6] was 2390 nM and the TGI [6] was 8860 nM. The GI50 [7] was 881 nM, the TGI [7] was greater than 100000 nM and the GI50 [8] was 2530 nM. The TGI [8] was 14100 nM, the GI50 [9] was 424 nM and the TGI [9] was 4440 nM. It also gave a GI50 [10] of 2590 nM, a TGI [10] of 10300 nM and a GI50 [11] of 1380 nM. It also gave a TGI [11] of 3480 nM, a GI50 [12] of 569 nM and a TGI [12] greater than 100000 nM. For the same molecule, the GI50 [13] was 1960 nM, the TGI [13] was 5030 nM and the GI50 [14] was 2660 nM. The TGI [14] was 7790 nM, the GI50 [15] was 2400 nM and the TGI [15] was 10100 nM. For the same molecule, the GI50 [16] was 3150 nM, the TGI [16] was 15200 nM and the GI50 [17] was 2070 nM. It also gave a TGI [17] of 4720 nM, a GI50 [18] of 1780 nM and a TGI [18] of 5110 nM. The GI50 [19] was 1580 nM, the TGI [19] was 3950 nM and the GI50 [20] was 541 nM. The TGI [20] was 22000 nM, the GI50 [21] was 2800 nM and the TGI [21] was 8860 nM. For the same molecule, the GI50 [22] was 1120 nM, the TGI [22] was 4680 nM and the GI50 [23] was 1350 nM. It also gave a TGI [23] of 5770 nM, a GI50 [24] of 1610 nM and a TGI [24] of 3830 nM. The GI50 [25] was 2040 nM, the TGI [25] was 7070 nM and the GI50 [26] was 2390 nM. It also gave a TGI [26] greater than 100000 nM, a GI50 [27] of 1700 nM and a TGI [27] of 9010 nM. The GI50 [28] was 1590 nM, the TGI [28] was 4730 nM and the GI50 [29] was 1130 nM. It also gave a TGI [29] of 88000 nM, a GI50 [30] of 1160 nM and a TGI [30] of 4430 nM. The GI50 [31] was 666 nM, the TGI [31] was 2450 nM and the GI50 [32] was 2080 nM. For the same molecule, the TGI [32] was 4580 nM, the GI50 [33] was 1560 nM and the TGI [33] was 8200 nM. The GI50 [34] was 2390 nM, the TGI [34] was 6680 nM and the GI50 [35] was 7280 nM. The TGI [35] was 52200 nM, the GI50 [36] was 2500 nM and the TGI [36] was 12500 nM. It also gave a GI50 [37] of 1990 nM, a TGI [37] of 5360 nM and a GI50 [38] of 1520 nM. The TGI [38] was 3670 nM, the GI50 [39] was 260 nM and the TGI [39] was 710 nM. The GI50 [40] was 1550 nM, the TGI [40] was 8260 nM and the GI50 [41] was 2700 nM. For the same molecule, the TGI [41] was 8770 nM, the GI50 [42] was 1790 nM and the TGI [42] was 4940 nM. The GI50 [43] was 1560 nM, the TGI [43] was 5700 nM and the GI50 [44] was 1470 nM. The TGI [44] was 6970 nM, the GI50 [45] was 842 nM and the TGI [45] was 9100 nM. It also gave a GI50 [46] of 2910 nM, a TGI [46] greater than 100000 nM and a GI50 [47] of 2160 nM. For the same molecule, the TGI [47] was greater than 100000 nM, the GI50 [48] was 277 nM and the TGI [48] was 799 nM. It also gave a GI50 [49] of 1480 nM, a TGI [49] of 3330 nM and a GI50 [50] of 789 nM. For the same molecule, the TGI [50] was 5760 nM, the GI50 [51] was 2070 nM and the TGI [51] was 5090 nM. For the same molecule, the GI50 [52] was 3090 nM, the TGI [52] was 22200 nM and the GI50 [53] was 2490 nM. For the same molecule, the TGI [53] was 7550 nM, the GI50 [54] was 2180 nM and the TGI [54] was greater than 100000 nM. For the same molecule, the GI50 [55] was 1050 nM and the TGI [55] was greater than 100000 nM.

Reference: PubChem BioAssay (NCI)
